Laboratory results reported in PubChem BioAssay AID1963437 (Molecular Pharmacology Branch, DTP, NCI, 2024).
Each block holds one compound with its values, some of them ahead of it.

Test system: OVCAR-8 complex spheroid, growth inhibition
Experiment: Anticancer human tumor OVCAR-8 cell line growth inhibition [Asc];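 note: spheroids exposed to agents for 7 days before readout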;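 for viability, T/C: percent viability relative to DMSO vehicle wells taken as 100%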
Details: for IC50: curve of first compound; for viability, T/C: stronger effect = lower value
Outline: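 Complex solid-tumor spheroids incorporating human endothelial and mesenchymal stem cells received single agents or combinations over half-log dilution ranges anchored to clinical Cmax.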

[1] = second compound 0.00316 µM, first compound 0.00316 µM
[2] = second compound 0.00316 µM, first compound 0.01 µM
[3] = second compound 0.00316 µM, first compound 0.0316 µM
[4] = second compound 0.00316 µM, first compound 0.1 µM
[5] = second compound 0.00316 µM, first compound 0.316 µM
[6] = second compound 0.00316 µM, first compound 1 µM
[7] = second compound 0.01 µM, first compound 0.00316 µM
[8] = second compound 0.01 µM, first compound 0.01 µM
[9] = second compound 0.01 µM, first compound 0.0316 µM
[10] = second compound 0.01 µM, first compound 0.1 µM
[11] = second compound 0.01 µM, first compound 0.316 µM
[12] = second compound 0.01 µM, first compound 1 µM
[13] = second compound 0.0316 µM, first compound 0.00316 µM
[14] = second compound 0.0316 µM, first compound 0.01 µM
[15] = second compound 0.0316 µM, first compound 0.0316 µM
[16] = second compound 0.0316 µM, first compound 0.1 µM
[17] = second compound 0.0316 µM, first compound 0.316 µM
[18] = second compound 0.0316 µM, first compound 1 µM
[19] = second compound 0.1 µM, first compound 0.00316 µM
[20] = second compound 0.1 µM, first compound 0.01 µM
[21] = second compound 0.1 µM, first compound 0.0316 µM
[22] = second compound 0.1 µM, first compound 0.1 µM
[23] = second compound 0.1 µM, first compound 0.316 µM
[24] = second compound 0.1 µM, first compound 1 µM
[25] = second compound 0.316 µM, first compound 0.00316 µM
[26] = second compound 0.316 µM, first compound 0.01 µM
[27] = second compound 0.316 µM, first compound 0.0316 µM
[28] = second compound 0.316 µM, first compound 0.1 µM
[29] = second compound 0.316 µM, first compound 0.316 µM
[30] = second compound 0.316 µM, first compound 1 µM
[31] = second compound 1 µM, first compound 0.00316 µM
[32] = second compound 1 µM, first compound 0.01 µM
[33] = second compound 1 µM, first compound 0.0316 µM
[34] = second compound 1 µM, first compound 0.1 µM
[35] = second compound 1 µM, first compound 0.316 µM
[36] = second compound 1 µM, first compound 1 µM

IC50 (second compound 0.00316 µM): > 1000 nM
IC50 (second compound 0.01 µM): > 1000 nM
IC50 (second compound 0.0316 µM): > 1000 nM
IC50 (second compound 0.1 µM): > 1000 nM
IC50 (second compound 0.316 µM): > 1000 nM
IC50 (second compound 1 µM): > 1000 nM
SMILES: CCN1CCN(Cc2ccc(Nc3ncc(F)c(-c4cc(F)c5nc(C)n(C(C)C)c5c4)n3)nc2)CC1 + CNC(C)C(=O)NC1CN(S(=O)(=O)c2cccc(S(=O)(=O)N3CCC4CCC(C(=O)NC(c5ccccc5)c5ccccc5)N4C(=O)C(NC(=O)C(C)NC)C3)c2)CCC2CCC(C(=O)NC(c3ccccc3)c3ccccc3)N2C1=O
viability, T/C [1]: 102%
viability, T/C [2]: 95.7%
viability, T/C [3]: 96%
viability, T/C [4]: 85.9%
viability, T/C [5]: 111%
viability, T/C [6]: 114%
viability, T/C [7]: 91.3%
viability, T/C [8]: 86.7%
viability, T/C [9]: 85%
viability, T/C [10]: 85.3%
viability, T/C [11]: 99.9%
viability, T/C [12]: 148%
viability, T/C [13]: 90.6%
viability, T/C [14]: 88.5%
viability, T/C [15]: 84.7%
viability, T/C [16]: 81.2%
viability, T/C [17]: 91.2%
viability, T/C [18]: 116%
viability, T/C [19]: 84%
viability, T/C [20]: 78%
viability, T/C [21]: 83.9%
viability, T/C [22]: 92.5%
viability, T/C [23]: 96.7%
viability, T/C [24]: 111%
viability, T/C [25]: 75.6%
viability, T/C [26]: 72%
viability, T/C [27]: 82.5%
viability, T/C [28]: 74.7%
viability, T/C [29]: 102%
viability, T/C [30]: 111%
viability, T/C [31]: 79.8%
viability, T/C [32]: 72.3%
viability, T/C [33]: 88.1%
viability, T/C [34]: 82.6%
viability, T/C [35]: 91.8%
viability, T/C [36]: 104%

IC50 (second compound 0.00316 µM): < 0.316 nM
IC50 (second compound 0.01 µM): > 100 nM
IC50 (second compound 0.0316 µM): > 100 nM
IC50 (second compound 0.1 µM): > 100 nM
IC50 (second compound 0.316 µM): > 100 nM
IC50 (second compound 1 µM): > 100 nM
SMILES: Cn1ncnc1[C@H]1c2n[nH]c(=O)c3cc(F)cc(c23)N[C@@H]1c1ccc(F)cc1 + CNC(C)C(=O)NC1CN(S(=O)(=O)c2cccc(S(=O)(=O)N3CCC4CCC(C(=O)NC(c5ccccc5)c5ccccc5)N4C(=O)C(NC(=O)C(C)NC)C3)c2)CCC2CCC(C(=O)NC(c3ccccc3)c3ccccc3)N2C1=O
viability, T/C (second compound 0.00316 µM, first compound 0.000316 µM): 1.94%
viability, T/C (second compound 0.00316 µM, first compound 0.001 µM): 1.14%
viability, T/C [1]: 0.66%
viability, T/C [2]: 1.15%
viability, T/C [3]: 0.71%
viability, T/C [4]: 0.74%
viability, T/C (second compound 0.01 µM, first compound 0.000316 µM): 106%
viability, T/C (second compound 0.01 µM, first compound 0.001 µM): 100%
viability, T/C [7]: 102%
viability, T/C [8]: 109%
viability, T/C [9]: 104%
viability, T/C [10]: 120%
viability, T/C (second compound 0.0316 µM, first compound 0.000316 µM): 91.7%
viability, T/C (second compound 0.0316 µM, first compound 0.001 µM): 106%
viability, T/C [13]: 91.9%
viability, T/C [14]: 97.1%
viability, T/C [15]: 99.9%
viability, T/C [16]: 95.5%
viability, T/C (second compound 0.1 µM, first compound 0.000316 µM): 106%
viability, T/C (second compound 0.1 µM, first compound 0.001 µM): 101%
viability, T/C [19]: 87.2%
viability, T/C [20]: 95.1%
viability, T/C [21]: 98.9%
viability, T/C [22]: 94.6%
viability, T/C (second compound 0.316 µM, first compound 0.000316 µM): 76.5%
viability, T/C (second compound 0.316 µM, first compound 0.001 µM): 79.7%
viability, T/C [25]: 84.5%
viability, T/C [26]: 107%
viability, T/C [27]: 97.6%
viability, T/C [28]: 85.4%
viability, T/C (second compound 1 µM, first compound 0.000316 µM): 69.5%
viability, T/C (second compound 1 µM, first compound 0.001 µM): 81.3%
viability, T/C [31]: 94.9%
viability, T/C [32]: 86.4%
viability, T/C [33]: 96.2%
viability, T/C [34]: 95.5%

IC50 (second compound 0.00316 µM): < 31.6 nM
IC50 (second compound 0.01 µM): > 10000 nM
IC50 (second compound 0.0316 µM): > 10000 nM
IC50 (second compound 0.1 µM): > 10000 nM
IC50 (second compound 0.316 µM): 9900 nM
IC50 (second compound 1 µM): 6840 nM
SMILES: O=C(c1cc(Cc2n[nH]c(=O)c3ccccc23)ccc1F)N1CCN(C(=O)C2CC2)CC1 + CNC(C)C(=O)NC1CN(S(=O)(=O)c2cccc(S(=O)(=O)N3CCC4CCC(C(=O)NC(c5ccccc5)c5ccccc5)N4C(=O)C(NC(=O)C(C)NC)C3)c2)CCC2CCC(C(=O)NC(c3ccccc3)c3ccccc3)N2C1=O
viability, T/C [3]: 0.81%
viability, T/C [4]: 1.08%
viability, T/C [5]: 0.69%
viability, T/C [6]: 1.07%
viability, T/C (second compound 0.00316 µM, first compound 3.16 µM): 1.9%
viability, T/C (second compound 0.00316 µM, first compound 10 µM): 0.51%
viability, T/C [9]: 111%
viability, T/C [10]: 102%
viability, T/C [11]: 101%
viability, T/C [12]: 110%
viability, T/C (second compound 0.01 µM, first compound 3.16 µM): 112%
viability, T/C (second compound 0.01 µM, first compound 10 µM): 79.2%
viability, T/C [15]: 94%
viability, T/C [16]: 99.3%
viability, T/C [17]: 101%
viability, T/C [18]: 94.7%
viability, T/C (second compound 0.0316 µM, first compound 3.16 µM): 103%
viability, T/C (second compound 0.0316 µM, first compound 10 µM): 87%
viability, T/C [21]: 80.3%
viability, T/C [22]: 86.4%
viability, T/C [23]: 88.6%
viability, T/C [24]: 101%
viability, T/C (second compound 0.1 µM, first compound 3.16 µM): 83.9%
viability, T/C (second compound 0.1 µM, first compound 10 µM): 79.1%
viability, T/C [27]: 83.7%
viability, T/C [28]: 100%
viability, T/C [29]: 90.4%
viability, T/C [30]: 82.4%
viability, T/C (second compound 0.316 µM, first compound 3.16 µM): 90.9%
viability, T/C (second compound 0.316 µM, first compound 10 µM): 49.7%
viability, T/C [33]: 79.2%
viability, T/C [34]: 90.7%
viability, T/C [35]: 99.5%
viability, T/C [36]: 90.3%
viability, T/C (second compound 1 µM, first compound 3.16 µM): 92.5%
viability, T/C (second compound 1 µM, first compound 10 µM): 29.8%

IC50 (second compound 0.00316 µM): > 1000 nM
IC50 (second compound 0.01 µM): > 1000 nM
IC50 (second compound 0.0316 µM): 969 nM
IC50 (second compound 0.1 µM): 641 nM
IC50 (second compound 0.316 µM): 548 nM
IC50 (second compound 1 µM): 508 nM
SMILES: O=C(c1ccc(F)c(F)c1Nc1ccc(I)cc1F)N1CC(O)([C@@H]2CCCCN2)C1 + CNC(C)C(=O)NC1CN(S(=O)(=O)c2cccc(S(=O)(=O)N3CCC4CCC(C(=O)NC(c5ccccc5)c5ccccc5)N4C(=O)C(NC(=O)C(C)NC)C3)c2)CCC2CCC(C(=O)NC(c3ccccc3)c3ccccc3)N2C1=O
viability, T/C [1]: 113%
viability, T/C [2]: 97%
viability, T/C [3]: 153%
viability, T/C [4]: 166%
viability, T/C [5]: 232%
viability, T/C [6]: 84.5%
viability, T/C [7]: 97.3%
viability, T/C [8]: 101%
viability, T/C [9]: 146%
viability, T/C [10]: 185%
viability, T/C [11]: 223%
viability, T/C [12]: 98.7%
viability, T/C [13]: 95.2%
viability, T/C [14]: 99.8%
viability, T/C [15]: 116%
viability, T/C [16]: 163%
viability, T/C [17]: 216%
viability, T/C [18]: 47.5%
viability, T/C [19]: 82.3%
viability, T/C [20]: 82.2%
viability, T/C [21]: 118%
viability, T/C [22]: 168%
viability, T/C [23]: 153%
viability, T/C [24]: 5.38%
viability, T/C [25]: 70.8%
viability, T/C [26]: 80.3%
viability, T/C [27]: 90.4%
viability, T/C [28]: 120%
viability, T/C [29]: 108%
viability, T/C [30]: 2.09%
viability, T/C [31]: 76.4%
viability, T/C [32]: 94.9%
viability, T/C [33]: 101%
viability, T/C [34]: 106%
viability, T/C [35]: 83.9%
viability, T/C [36]: 1.27%
